Data on eight molecules can be found in US4904667A, “1H-1,2,4-thiadiazolo(3,4-b)quinazolin-5-one-2,2-dioxides, and a method for increasing the cardiac output of a mammal with them” (Ortho Pharmaceutical Corporation, priority 1989, dated 1990).

pIC50: −log10 of the molar value. Like-named read-outs stand apart in the source and are kept apart here.

Experiment [1] deals with cyclic nucleotide phosphodiesterase fraction III. The experiment in a line: Procedure I: Cyclic Nucleotide Phosphodiesterase Assay. The experiment is classed as biochemical.
Another experiment has as its system Dog. Kind of experiment: Procedure III: Acute In Vivo Cardiotonic Evaluation (cardiac force in anesthetized dogs). The settings on record: for Procedure III % Change CF (cardiac force): dose 1.9 mpk, i.v., anesthetized dog, vs pretreatment control. How it is done:
Acute In Vivo Cardiotonic Evaluation
Cardiotonic Activity of Amrinone-Win 40680. Alousi, A. A., Farah, A. I., Lester, G. Y. and Opalka, C. J. Circ. Res. 45:666, 1979.
Adult mongrel dogs are anesthetized with sodium pentobarbital and artifically respired. Arterial pressure is recorded via a femoral artery and the pressure pulse is used to trigger a cardiotachometer for heart rate. Left ventricular pressure is measured with a Millar catheter and dP/dt is derived. Cardiac output is determined by measuring ascending aortic blood flow with an electromagnetic flow probe and myocardial contractile force is measured with a Walton Brodie strain gauge sutured to the right ventricle. Lead II EKG is also recorded.
A standard dose of dopamine or dobutamine is administered to assess myocardial responsiveness.
Test compounds are administered by i.v. infusion or bolus administration and the effects on cardiovascular parameters are determined.
Dose related effects of the test compound on blood pressure, heart rate, dP/dt max. (dp/dt represents the rate at which blood pressure rises), cardiac force, and cardiac output are compared to pretreatment control values, expressed as a % change and rated for activity. Statistical evaluations are made using the appropriate parametric test against a vehicle control.

In experiment [2] the test system is dog tracheal smooth muscle. The experiment in a line: Procedure II: Inhibition of calcium dependent smooth muscle contraction (KCl-challenged dog tracheal rings). The conditions noted are these: Canis lupus familiaris, 50 mM KCl contraction, dog trachea. The protocol: INHIBITION OF CALCIUM DEPENDENT SMOOTH MUSCLE CONTRACTION
Farley, J. M. and Miles, P. R. The Sources of Calcium for Acetylcholine-Induced Contractions of Dog Tracheal Smooth Muscle. J. Pharmacol. Exp. Ther. 207: 340-346,l 1978.
Canines, guinea pigs and rabbits
Trachea from dogs killed by excess KCl injection are stored overnight at 4° C. in oxygenated Krebs-Henseleit buffer. Tracheal rings, one cartilage segment wide (5-10 mm), are cut starting from the bronchial end. After cutting the cartilage, the trachealis muscle tissue is suspended in oxygenated Krebs-Henseleit buffer at 37° C. in a 25 ml tissue bath. After a 60 minutes equilibration period, the tissues are challenged with 10 μM carbachol. After 5 minutes the tissues are rinsed and allowed to rest 50 minutes. The tissues are then challenged with 50 mM KCl and, after 30 minutes, the contractions are quantitated. The tissues are then rinsed and reequilibrated for 50 minutes. Test compounds are then added for 10 minutes, and the tissue is rechallenged with 50 mM KCl. After 30 minutes, the contraction is recorded and used to determine the % inhibition of control.
The percent inhibition of smooth muscle contraction is calculated from response data before and after drug treatment. [formula]

The mark [3] stands for this setting: concentration inhibiting 50% of cyclic nucleotide phosphodiesterase activity, cyclic AMP substrate, pH 7.4, read-out: Procedure I IC50.

Broadly, the pIC50 is the IC50 on a negative log10 scale, so that one unit is a factor of ten. As to `CN(C(=O)CCCOc1ccc2nc3n(c(=O)c2c1)CS(=O)(=O)N3)C1CCCCC1` [Example 9, 7-(N-Cyclohexyl-N-methyl-4-amino-4-oxobutyloxy)-1H-1,2,4-thiadiazolo[3,4-b]quinazolin-5-one-2,2-dioxide], the pIC50 in experiment [1] (setting [3]) was 4.89; in experiment [1] (fraction III, read-out: IC50 versus cyclic nucleotide phosphodiesterase fraction III), 4.89. The cardiac force increased in the experiment on Dog (dog, intravenously at 1.9 mg/kg) came out at 37%. For the same molecule, in the experiment with Dog, the “Procedure III % Change CF (cardiac force)” value (from here on “Procedure III % Change CF”) worked out at 37%.
Broadly, the inhibition is the share of the control response that was lost under treatment. Regarding `O=c1c2cc(Cl)c(Cl)cc2nc2n1CS(=O)(=O)N2` [Example 5, 7,8-Dichloro-1H-1,2,4-thiadiazolo[3,4-b]quinazolin-5-one-2,2-dioxide], the inhibition at 2 µM in experiment [2] amounted to 11%.
As for `O=c1c2cc([N+](=O)[O-])ccc2nc2n1CS(=O)(=O)N2` [Example 2, 7-Nitro-1H-1,2,4-thiadiazolo[3,4-b]quinazolin-5-one-2,2-dioxide], the inhibition at 10 µM in experiment [2] was 9%.
Turning to `COc1cc2nc3n(c(=O)c2cc1OC)CS(=O)(=O)N3` [Example 3, 7,8-Dimethoxy-1H-1,2,4-thiadiazolo[3,4-b]quinazolin-5-one-2,2-dioxide], the inhibition at 2 µM in experiment [2] amounted to 13%. In addition, the pIC50 in experiment [1] (setting [3]) is 4.46. The “Procedure III % Change CF” value in the experiment with Dog is reported as 8%.
As for `O=c1c2ccccc2nc2n1CS(=O)(=O)N2` [Example 8, 1H-1,2,4-Thiadiazolo[3,4-b]quinazolin-5-one-2,2-dioxide], the inhibition at 10 µM in experiment [2] was found to be 20%. Besides, in experiment [1] (setting [3]), the pIC50 is 3.82.
For the molecule `COc1ccc2nc3n(c(=O)c2c1OC)CS(=O)(=O)N3` [Example 4, 6,7-Dimethoxy-1H-1,2,4-thiadiazolo[3,4-b]quinazolin-5-one-2,2-dioxide], the inhibition at 2 µM in experiment [2] is 43%. Further, the “Procedure III % Change CF” value with Dog is 22%.
For the molecule `O=c1c2ccc(Cl)cc2nc2n1CS(=O)(=O)N2` [Example 7, 8-Chloro-1H-1,2,4-thiadiazolo[3,4-b]quinazolin-5-one-2,2-dioxide], the inhibition at 10 µM in experiment [2] worked out at 31%. In experiment [1] (setting [3]), the pIC50 is 3.82.
The corresponding values for `O=c1c2cc(Cl)ccc2nc2n1CS(=O)(=O)N2` [Example 6, 7-Chloro-1H-1,2,4-thiadiazolo[3,4-b]quinazolin-5-one-2,2-dioxide] are 18% and 4.15.
